Values quoted from earlier work in patent US7652024B2, “Acylated spiropiperidine derivatives as melanocortin-4 receptor modulators” (Merck Sharp & Dohme Corp., priority 2005, dated 2010).

System: erectile dysfunction patients

SMILES: CCCc1nn(C)c2c(=O)[nH]c(-c3cc(S(=O)(=O)N4CCN(C)CC4)ccc3OCC)nc12 [Sildenafil, sildenafil]
- effective in share of patients: about 70%
